Measurements taken from US12486227B2, “Small molecules for cancer therapy that reduce the expression of transcription factors KLF5 and EGR-1” (University of Florida Research Foundation, Incorporated, priority 2019, dated 2025).

Columns and labels:
KLF5 = experiment: Western blot of KLF5 protein levels in DLD-1 cells; assay type: cell-based, human; conditions: 1 μM and 10 μM, 24 h
Protocol: In this experiment the test compounds were at 1 μM and 10 μM, and protein levels were measured after 24 h.
(§1) Western blot analysis. Total protein was extracted from cells with Laemmli buffer and the analysis was performed as described previously (24).

MAPK pathway = experiment: Western blot of MAPK signaling pathway components; assay type: cell-based, human; conditions: DLD-1 and HCT116, 10 μM, 72 h
From the text: SR18662 negatively regulates MAPK and WNT signaling pathway and cyclin levels. Myriad publications have shown that in both in vitro and in vivo contexts KLF5 is regulated by MAPK and WNT signaling pathways and that KLF5, in turn, has the ability to modulate the activity of these pathways (14, 18, 26-32). We have previously shown that treatment of CRCs with ML264 results in decreased activity of both the MAPK and WNT signaling pathways (24). Because SR15006 and SRI8662 are structurally related to ML264, we decided to investigate their ability to alter the expression levels of the components of these pathways. Thus, we treated DLD-1 and HCT116 CRCs with DMSO (vehicle) and tested compounds at 1 μM or 10 μM, collecting the cells for western blot analysis at 24, 48, and 72 h. […] Similar effects were seen when both cell lines were treated these compounds at 1 μM. Furthermore, the inhibitory effects of SR18662 on the components of the MAPK signaling pathway we observed at earlier time points than were apparent following treatment with ML264 or SR15006.
as §1

DLD-1-derived xenografts = experiment: Histology, immunofluorescence and immunohistochemistry of DLD-1-derived xenografts; assay type: in vivo, mouse
Protocol: SR18862 inhibits the growth of CRC xenografts in vivo. To evaluate SRI8662 in an in vivo model we used CRC cells for a mouse xenograft study. As described in more detail in the Examples section, nude mice were injected with DLD-1 CRC cells. Tumors were allowed to grow to an approximate size of 100 mm^3, and then mice were injected with vehicle or with varied concentrations of SR18662, given once a day or twice a day for five days, followed by two days without injection, and then followed by five days with injections. The experiment was completed the day after the last injection. […] Significant differences in tumor size are apparent at the end of the treatment schedule (FIG. 6B). To further characterize the impact of SR18662 on the features of isolated tumors, we compared vehicle-treated mice with mice that had been treated with SR18662 twice a day. […] Because SR18662 had induced cell apoptosis and death in the in vitro setting, we stained the xenografts with PanCK and TUNEL to estimate the levels of apoptosis in the in vivo context.
Immunofluorescence and immunohistochemistry. Tumors dissected from mice were first fixed in Bouin's fixative (50% ethanol+5% acetic acid in water) for 1 h, then fixed overnight in 10% buffered formalin (Fisher Scientific). The tissues were then paraffin-embedded using an automated processor, sectioned at 5 μm, collected onto charged slides and baked in a 65° C. oven overnight, and were subsequently deparaffinized in xylene. […]
Tissue sections were first incubated with blocking buffer (5% BSA in TBS-Tween) for 30 min at 37° C. and then with primary antibody at 4° C. overnight in a humidified chamber with gentle shaking. […] Slides were analyzed under a Nikon Eclipse 90i microscope (Nikon) and representative photomicrographs were taken. […]

DLD-1 cells = experiment: Apoptosis assay (Annexin V/PI, FACS), DLD-1; assay type: cell-based, human
Protocol: We performed an apoptosis assay using DLD-1 and HCT116 cells treated with vehicle or 1 μM or 10 μM of test compounds over the course of three days with Annexin V/P1 stain in combination with FACS analysis. […] This is accompanied by an increase in the population of cells in early and late apoptosis, as well as an increase in the dead cell population over the three days of treatment. […] This effect was more pronounced upon treatment with SR18662 than ML264 or SR15006 (FIGS. 4D-F). When a lower concentration (1 μM) of test compounds was used, only a small increase of the population of cells undergoing early apoptosis was seen after 72 h treatment with SRI8662.
(§2) Cell proliferation, cell cycle and apoptosis assays. For cell proliferation experiments, cell cycle, and apoptosis determination, DLD-1 and HCT116 cells were treated with 1 or 10 μM of each compound or with vehicle (DMSO). The cells were collected at 24, 48, and 72 h post-treatment and analyzed as previously described (24). Each experiment was performed in triplicate.

[1] = test system: DLD-1 and HCT116 CRC cells; experiment: Cell cycle analysis by flow cytometry (propidium iodide); assay type: cell-based, human; conditions: 10 μM, over three days, vs vehicle, ML264, SR15006
Protocol: SR18662 alters the cell cycle pattern of CRCs. […] We have also evaluated the impact of SR15006 and SR18662 on cell cycle progression. We treated DLD-1 and HCT116 CRC cells over the course of three days with vehicle or 1 μM or 10 μM of test compound and then analyzed cell cycle using flow cytometry.
as §2

Cyclin D1, E, A2, and B1 = experiment: Western blot of cyclin levels; assay type: cell-based, human; conditions: DLD-1 and HCT116, 1 μM or 10 μM, 72 h
From the text: Cyclins and their appropriate cyclin-dependent kinases form a regulatory network that allow cells to progress through the cell cycle (39, 40). […] SR15006, or SR18662, as compared to vehicle-treated cells. Thus, we investigated if these changes are accompanied by differences in the expression levels of cyclins. We focused our attention on Cyclin D1, E, A2, and B1, as we have previously shown that ML264 has inhibitory effect on their levels (24). […] Additionally, in contrast to ML264 or SR15006, SR18862 induced apoptosis and cell death.
as §1

[2] = 25 mg/kg twice per day vs vehicle

CS(=O)(=O)N1CCN(C(=O)CNC(=O)/C=C/c2ccc(Cl)c(Cl)c2)CC1 [Example 9, (E)-3-(3,4-dichlorophenyl)-N-(2-(4-(methylsulfonyl)piperazin-1-yl)-2-oxoethyl)acrylamide]
KLF5 protein levels by Western blot (KLF5): significantly reduced
expression levels of MAPK pathway components (MAPK pathway): negatively regulated the expression levels of the components of the MAPK pathway
expression levels of KLF5 and EGR1 in xenografts (DLD-1-derived xenografts; 25 mg/kg twice a day, immunohistochemistry): significantly decreased
TUNEL staining in xenografts (DLD-1-derived xenografts; [2]): increase of TUNEL staining
fibrosis (PanCK/Vimentin stain) in xenografts (DLD-1-derived xenografts; [2]): higher level of fibrosis
healthy cell count and apoptosis (DLD-1 cells; DLD-1, 1 μM, 48 h and 72 h): decrease in healthy cell count at 48 h and 72 h and an increase in early and late apoptosis
population of healthy cells (DLD-1 cells; DLD-1, 10 μM, 48 and 72 h): significant decrease in the population of healthy cells
subG1 population [1]: significant increase in the number of cells within the subG1 population
levels of cyclins (Cyclin D1, E, A2, and B1): significant reduction in the levels of tested cyclins
